# Values quoted from earlier work in patent US11179370B2, “Cannabinoid receptor antagonists/inverse agonists useful for treating disease conditions, including metabolic disorders and cancers” (Jenrin Discovery, LLC, priority 2012, dated 2021).
# Conditions: type 2 diabetes patients without other anti-diabetic medication, after six months of treatment, baseline value 7.9
compound,measurement,value
Cc1c(C(=O)NN2CCCCC2)nn(-c2ccc(Cl)cc2Cl)c1-c1ccc(Cl)cc1 [rimonabant],HbA1c levels lowered,0.8%
